Measured values reported in patent US12134620B2 (ARAXES PHARMA LLC, priority 2018, dated 2024).

Target: T1, KRAS G12C 1-169, his-tagged protein, GDP-loaded (Homo sapiens, UniProt P01116, G12C)
T1 construct: KRAS G12C 1-169, his-tagged protein, GDP-loaded; His tag
Experiment: Biochemical assay: covalent modification of KRAS G12C, analysed by mass spectrometry (RapidFire/TOF or Q-Exactive); also: time not given here
Format: binding
Conditions: Modification activity, modification percentage from MS peak intensities
Outline: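 Covalent adduct formation was quantified by intact-protein mass spectrometry, either TOF or C4 LC-Q Exactive Plus, as percent modified versus unmodified protein after deconvolution. Compounds at 8 or 32 μM final were incubated with 0.5 or 2 μM GDP-bound KRAS G12C(1-169)-His in Hepes/NaCl/MgCl2 buffer before acid quench.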

SMILES | Binding %
C=CC(=O)N1CC2(CCN(c3nc(OCCN4CC(F)(F)C4)nc(-c4c(C)ccc5[nH]ncc45)c3C#N)C2)C1 [Compound I-87, 4-(2-acryloyl-2,6-diazaspiro[3.4]octan-6-yl)-2-(2-(3,3-difluoroazetidin-1-yl)ethoxy)-6-(5-methyl-1H-indazol-4-yl)pyrimidine-5-carbonitrile] | ++ (++ indicates binding activity from 50 to 85%)
C=CC(=O)N1CC2(CCN(c3nc(N4CCOCC4)nc(N4CCCc5ccccc54)c3C#N)C2)C1 [Compound I-88, 4-(2-acryloyl-2,6-diazaspiro[3.4]octan-6-yl)-6-(3,4-dihydroquinolin-1(2H)-yl)-2-morpholinopyrimidine-5-carbonitrile] | + (+ indicates binding activity greater than 0% and up to 50%)
C=CC(=O)N1CC2(CCN(c3nc(N4CCOCC4)nc(N4CC(O)Cc5ccccc54)c3C#N)C2)C1 (stereo not shown) [Compound I-89, 4-(2-acryloyl-2,6-diazaspiro[3.4]octan-6-yl)-6-(3-hydroxy-3,4-dihydroquinolin-1(2H)-yl)-2-morpholinopyrimidine-5-carbonitrile] | + (+ indicates binding activity greater than 0% and up to 50%)
C=CC(=O)N1CC2(CCN(c3nc(OC[C@@H]4CCCN4C)nc(-c4n[nH]c5ccccc45)c3C#N)C2)C1 [Compound I-90, (S)-4-(2-acryloyl-2,6-diazaspiro[3.4]octan-6-yl)-6-(1H-indazol-3-yl)-2-((1-methylpyrrolidin-2-yl)methoxy)pyrimidine-5-carbonitrile] | + (+ indicates binding activity greater than 0% and up to 50%)
C=CC(=O)N1CC2(CCN(c3nc(OC[C@@H]4CN(C)CCO4)nc(-c4c(C)ccc5[nH]ncc45)c3C#N)C2)C1 [Compound I-91, 4-(2-acryloyl-2,6-diazaspiro[3.4]octan-6-yl)-6-(5-methyl-1H-indazol-4-yl)-2-(((S)-4-methylmorpholin-2-yl)methoxy)pyrimidine-5-carbonitrile] | ++ (++ indicates binding activity from 50 to 85%)
C=CC(=O)N1CC2(CCN(c3nc(OC[C@@H]4CCCN4C)nc(-c4cc(O)cc5ccccc45)c3C#N)C2)C1 [Compound I-92, (S)-4-(2-acryloyl-2,6-diazaspiro[3.4]octan-6-yl)-6-(3-hydroxynaphthalen-1-yl)-2-((1-methylpyrrolidin-2-yl)methoxy)pyrimidine-5-carbonitrile] | ++ (++ indicates binding activity from 50 to 85%)
C=CC(=O)N1CC2(CCN(c3nc(OCc4ccccn4)nc(-c4c(C)ccc5cn[nH]c45)c3C#N)C2)C1 [Compound I-93, 4-(2-acryloyl-2,6-diazaspiro[3.4]octan-6-yl)-6-(6-methyl-1H-indazol-7-yl)-2-(pyridin-2-ylmethoxy)pyrimidine-5-carbonitrile] | +++ (+++ indicates binding activity greater than 85%)
C=CC(=O)N1CC2(CCN(c3nc(OC[C@@H]4CCCN4C)nc(-c4cc(C(N)=O)ccc4F)c3C#N)C2)C1 [Compound I-94, (S)-3-(6-(2-acryloyl-2,6-diazaspiro[3.4]octan-6-yl)-5-cyano-2-((1-methylpyrrolidin-2-yl)methoxy)pyrimidin-4-yl)-4-fluorobenzamide] | + (+ indicates binding activity greater than 0% and up to 50%)
C=CC(=O)N1CC2(CCN(c3nc(N4CCOCC4)nc(-c4cccc5[nH]ncc45)c3C#N)C2)C1 [Compound I-95, 4-(2-acryloyl-2,6-diazaspiro[3.4]octan-6-yl)-6-(1H-indazol-4-yl)-2-morpholinopyrimidine-5-carbonitrile] | + (+ indicates binding activity greater than 0% and up to 50%)
C=CC(=O)N1CC2(CCN(c3nc(N4CCOCC4)nc(-c4c(C)ccc5[nH]nc(C)c45)c3C#N)C2)C1 [Compound I-96, 4-(2-acryloyl-2,6-diazaspiro[3.4]octan-6-yl)-6-(3,5-dimethyl-1H-indazol-4-yl)-2-morpholinopyrimidine-5-carbonitrile] | +++ (+++ indicates binding activity greater than 85%)
